ChEMBL document CHEMBL2046383, “Hyrtioreticulins A-E, indole alkaloids inhibiting the ubiquitin-activating enzyme, from the marine sponge Hyrtios reticulatus” (Bioorg Med Chem, 2012)
Active and inactive are the calls of the source. The rule behind the calls is not given here.

What was measured:
[1] = biological target: T1, Ubiquitin-like modifier-activating enzyme 1 (Homo sapiens, UniProt P22314); test: (§1) Inhibition of FLAG-tagged ubiquitin-activating enzyme E1 assessed as inhibition of GST-ubiquitin/FLAG-E1 intermediate formation by Western blot analysis
T1 sequence (P22314 whole entry): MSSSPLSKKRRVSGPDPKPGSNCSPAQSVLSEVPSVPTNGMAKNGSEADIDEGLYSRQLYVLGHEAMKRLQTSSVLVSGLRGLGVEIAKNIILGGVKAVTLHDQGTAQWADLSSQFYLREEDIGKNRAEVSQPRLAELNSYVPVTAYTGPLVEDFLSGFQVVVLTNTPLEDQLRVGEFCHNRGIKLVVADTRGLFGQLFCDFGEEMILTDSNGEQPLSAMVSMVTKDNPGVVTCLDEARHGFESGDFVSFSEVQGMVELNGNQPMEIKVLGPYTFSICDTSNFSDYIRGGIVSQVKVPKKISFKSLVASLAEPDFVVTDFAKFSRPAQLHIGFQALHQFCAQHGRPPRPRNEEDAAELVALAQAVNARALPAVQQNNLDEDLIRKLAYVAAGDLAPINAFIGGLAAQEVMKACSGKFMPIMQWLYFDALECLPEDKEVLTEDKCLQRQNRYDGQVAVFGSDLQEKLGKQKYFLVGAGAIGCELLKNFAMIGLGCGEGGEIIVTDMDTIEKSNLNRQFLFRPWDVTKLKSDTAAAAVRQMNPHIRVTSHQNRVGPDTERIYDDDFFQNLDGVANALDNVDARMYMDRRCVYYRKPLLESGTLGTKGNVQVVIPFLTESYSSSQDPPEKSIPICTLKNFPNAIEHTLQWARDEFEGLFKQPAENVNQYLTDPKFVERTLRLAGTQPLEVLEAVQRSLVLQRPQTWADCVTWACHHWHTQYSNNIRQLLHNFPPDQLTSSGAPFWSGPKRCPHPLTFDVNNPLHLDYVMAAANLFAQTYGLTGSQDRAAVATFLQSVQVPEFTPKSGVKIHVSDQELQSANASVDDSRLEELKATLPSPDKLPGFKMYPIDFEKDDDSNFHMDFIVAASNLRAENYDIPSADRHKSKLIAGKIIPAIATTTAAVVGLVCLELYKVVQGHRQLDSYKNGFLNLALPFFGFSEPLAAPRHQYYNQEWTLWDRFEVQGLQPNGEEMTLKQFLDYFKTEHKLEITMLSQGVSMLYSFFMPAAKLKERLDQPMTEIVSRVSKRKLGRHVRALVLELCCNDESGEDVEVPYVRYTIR

[2] = tested on: HeLa; test: Cytotoxicity against human HeLa cells at 50 ug/mL; type: functional, cell-based
[3] = biological target: T2, Ubiquitin-like modifier-activating enzyme 1 (Homo sapiens) (UniProt P22314); test: Inhibition of FLAG-tagged ubiquitin-activating enzyme E1 assessed as inhibition of GST-ubiquitin/FLAG-E1 intermediate formation at 100 uM by Western blot analysis
T2 sequence (whole entry): T1 sequence (P22314 whole entry)

[4] = biological target: T2, Ubiquitin-like modifier-activating enzyme 1 (Homo sapiens); test: Inhibition of GST-tagged ubiquitin binding to FLAG-tagged E1 at 50 uM after 20 mins by immunoprecipitation analysis
[5] = biological target: T2, Ubiquitin-like modifier-activating enzyme 1 (Homo sapiens); test: as §1
[6] = biological target: T1, Ubiquitin-like modifier-activating enzyme 1; test: Inhibition of ubiquitin-activating enzyme E1
[7] = biological target: T1, Ubiquitin-like modifier-activating enzyme 1; test: Inhibition of recombinant fluorescein-tagged E1 assessed as inhibition of ubiquitin-E1 adduct formation incubated for 15 mins prior to ATP addition measured after 5 mins by SDS PAGE analysis

Compound | Activity [2] | inhibition [4] | further results
O=C(O)[C@@H]1Cc2c([nH]c3ccc(O)cc23)[C@@H](Cc2cnc[nH]2)N1 [HYRTIORETICULIN A] | – | – | IC50 [1]: 2.4 µM
C[C@H]1N[C@@H](C(=O)O)Cc2c1[nH]c1ccc(O)cc21 | inactive | – | inhibition [3]: Active
C[C@@H](CC(=O)NC(=O)c1coc(/C=C/CCCCCCCCC(=O)O)cc1=O)C(=O)O | – | Active | –
C[C@@H]1N[C@H](C(=O)O)Cc2c[nH]c3ccc(O)c1c23 | inactive | – | –
C[C@H]1N[C@H](C(=O)O)Cc2c[nH]c3ccc(O)c1c23 | inactive | – | –
C[C@H]1N[C@H](C(=O)O)Cc2c1[nH]c1ccc(O)cc21 | inactive | – | –
O=C(O)[C@@H]1Cc2c([nH]c3ccc(O)cc23)[C@H](Cc2c[nH]cn2)N1 [HYRTIORETICULIN B] | inactive | inactive | inhibition [5]: Dose-dependent effect; IC50 [1]: 35 µM
O=C(O)[C@@H]1Cc2c([nH]c3ccc(O)cc23)[C@@H](Cc2c[nH]cn2)N1 | inactive | inactive | inhibition [5]: Dose-dependent effect
CC(C)(O)/C=C/[C@@]12[C@H]3[C@@H](O)[C@@H]4O[C@@H]4[C@]1(O)OC(C)(C)[C@H]2C=C1C(=O)[C@H]2O[C@H]2[C@H](O)[C@H]13 [PANEPOPHENANTHRINE] | – | – | IC50 [6]: 40 µM
CCCCCCCC(=O)SCC/C=C/[C@@H]1CC(=O)NCc2nc(cs2)C2=N[C@@](C)(CS2)C(=O)N[C@@H](C(C)C)C(=O)O1 [LARGAZOLE] | – | – | IC50 [7]: 29 µM
